Measurements as given in US20080300231A1, “Antibacterial amide macrocycles VI” (priority 2005, published 2008).
≈ marks a conversion by molar mass, not a printed value. Counter-ions that a name gives are not always drawn. Like-named read-outs stand apart in the source and are kept apart here.

What was measured:
S. aureus 133 [1] = test: Minimum inhibitory concentration (MIC), S. aureus 133; format: cell-based
Procedure: (§1) Determination of the Minimum Inhibitory Concentration (MIC)
(§2) The minimum inhibitory concentration (MIC) is the minimum concentration of an antibiotic with which the growth of a test microbe is inhibited over 18-24 h. The inhibitor concentration can in these cases be determined by standard microbiological methods (see, for example, The National Committee for Clinical Laboratory Standards. Methods for dilution antimicrobial susceptibility tests for bacteria that grow aerobically; approved standard-fifth edition. NCCLS document M7-A5 [ISBN 1-56238-394-9]. NCCLS, 940 West Valley Road, Suite 1400, Wayne, Pa. 19087-1898 USA, 2000). The MIC of the compounds of the invention is determined in the liquid dilution test on the 96-well microtitre plate scale. The bacterial microbes are cultivated in a minimal medium (18.5 mM Na2HPO4, 5.7 mM KH2PO4, 9.3 mM NH4Cl, 2.8 mM MgSO4, 17.1 mM NaCl, 0.033 μg/ml of thiamine hydrochloride, 1.2 μg/ml of nicotinic acid, 0.003 μg/ml of biotin, 1% glucose, 25 μg/ml of each proteinogenic amino acid with the exception of phenylalanine; [H.-P. Kroll; unpublished]) with addition of 0.4% BH broth (test medium). In the case of Enterococcus faecium L4001, heat-inactivated fetal calf serum (FCS; GibcoBRL, Germany) is added to the test medium in a final concentration of 10%. Overnight cultures of the test microbes are diluted to an OD578 of 0.001 (to 0.01 in the case of enterococci) in fresh test medium, and incubated 1:1 with dilutions of the test substances (1:2 dilution steps) in test medium (200 μl final volume). The cultures are incubated at 37° C. for 18-24 hours; enterococci in the presence of 5% CO2
(§3) The lowest substance concentration in each case at which no visible bacterial growth occurs any more is defined as the MIC.
(§4) Alternative Method for Determining the Minimum Inhibitory Concentration (MIC)
(§5) The minimum inhibitory concentration (MIC) is the minimum concentration of an antibiotic with which the growth of a test microbe is inhibited over 18-24 h. The inhibitor concentration can in these cases be determined by standard microbiological methods with modified medium in an agar dilution test (see, for example, The National Committee for Clinical Laboratory Standards. Methods for dilution antimicrobial susceptibility tests for bacteria that grow aerobically; approved standard-fifth edition. NCCLS document M7-A5 [ISBN 1-56238-394-9]. NCCLS, 940 West Valley Road, Suite 1400, Wayne, Pa. 19087-1898 USA, 2000). The bacterial microbes are cultivated on 1.5% agar plates which contain 20% defibrinated horse blood. The test microbes, which are incubated overnight on Columbia blood agar plates (Becton-Dickinson), are diluted in PBS, adjusted to a microbe count of about 5×10^5 microbes/ml and placed dropwise (1-3 μl) on test plates. The test substances comprise different dilutions of the test substances (1:2 dilution steps). The cultures are incubated at 37° C. in the presence of 5% CO2 for 18-24 hours.
(§6) The lowest substance concentration in each case at which no visible bacterial growth occurred any more is defined as the MIC and is reported in μg/ml.

S. aureus T17 = test: Minimum inhibitory concentration (MIC), biphenomycin-resistant S. aureus T17; format: cell-based; conditions: Staphylococcus aureus; biphenomycin-resistant S. aureus T17; read-out: MIC S. aureus T17
Procedure: as §1, §2, §3, §4, §5, §6
The S. aureus strain T17 is isolated in vivo. CFW1 mice are infected intraperitoneally with 4×10^7 S. aureus 133 cells per mouse. 0.5 h after the infection, the animals are treated intravenously with 50 mg/kg biphenomycin B. The kidneys are removed from the surviving animals on day 3 after the infection. After homogenization of the organs, the homogenates are plated out as described for RN4220Bi^R on antibiotic-free and antibiotic-containing agar plates and incubated at 37° C. overnight. […] About 20 of these colonies are tested for the biphenomycin B MIC, and a colony with a MIC of >50 μM is selected for further cultivation, and the strain is referred to as T17.

[2] = system: Enterococcus faecium L4001; test: Minimum inhibitory concentration (MIC), E. faecium L4001; format: cell-based; conditions: Enterococcus faecium
Procedure: as §1, §2, §3, §4, §5, §6

[3] = biological target: S. aureus 133 Translation; test: S. aureus in vitro transcription-translation assay (firefly luciferase, S30 extract); format: biochemical; conditions: 50% inhibition of the translation of firefly luciferase
Source text: In Vitro Transcription-Translation with S. aureus Extracts
Construction of an S. aureus luciferase Reporter Plasmid
In order to construct a reporter plasmid which can be used in an in vitro transcription-translation assay from S. aureus the plasmid pBESTluc (Promega Corporation, USA) is used. The E. coli tac promoter present in this plasmid in front of the firefly luciferase is replaced with the capA1 promoter with appropriate Shine-Dalgarno sequence from S. aureus. The primers CAPFor 5′-CGGCCAAGCTTACTC-[…] […]-3′ and CAPRev 5′-[…]-3′ are used for this. The primer CAPFor contains the capA1 promoter, the ribosome binding site and the 5′ region of the luciferase gene. After PCR using pBESTluc as template it is possible to isolate a PCR product which contains the firefly luciferase gene with the fused capA1 promoter. This is, after restriction with ClaI and HindIII, ligated into the vector pBESTluc which has likewise been digested with ClaI and HindIII. The resulting plasmid p1a can be replicated in E. coli and can be used as template in the S. aureus in vitro transcription-translation test.
Preparation of S30 Extracts from S. aureus
Six litres of BHI medium are inoculated with a 250 ml overnight culture of an S. aureus strain and allowed to grow at 37° C. until the OD600 nm is 2-4. The cells are harvested by centrifugation and washed in 500 ml of cold buffer A (10 mM Tris acetate, pH 8.0, 14 mM magnesium acetate, 1 mM DTT, 1 M KCl). After renewed centrifugation, the cells are washed in 250 ml of cold buffer A with 50 mM KCl, and the resulting pellets are frozen at −20° C. for 60 min. The pellets are thawed on ice in 30 to 60 min and taken up to a total volume of 99 ml in buffer B (10 mM Tris acetate, pH 8.0, 20 mM magnesium acetate, 1 mM DTT, 50 mM KCl). 1.5 ml portions of lysostaphin (0.8 mg/ml) in buffer B are introduced into 3 precooled centrifuge cups and mixed with 33 ml of the cell suspension each. The samples are incubated at 37° C., shaking occasionally, for 45 to 60 min, before 150 μl of a 0.5 M DTT solution are added. The lysed cells are centrifuged at 30 000×g and 4° C. for 30 min. The cell pellet is taken up in buffer B and then centrifuged again under the same conditions, and the collected supernatants are combined. The supernatants are centrifuged again under the same conditions, and 0.25 volumes of buffer C (670 mM Tris acetate, pH 8.0, 20 mM magnesium acetate, 7 mM Na3 phosphoenolpyruvate, 7 mM DTT, 5.5 mM ATP, 70 μM amino acids (complete from Promega), 75 μg of pyruvate kinase (Sigma, Germany))/ml are added to the upper ⅔ of the supernatant. The samples are incubated at 37° C. for 30 min. The supernatants are dialysed against 2 l of dialysis buffer (10 mM Tris acetate, pH 8.0, 14 mM magnesium acetate, 1 mM DTT, 60 mM potassium acetate) in a dialysis tube with a 3500 Da cut-off with one buffer change at 4° C. overnight. The dialysate is concentrated to a protein concentration of about 10 mg/ml by covering the dialysis tube with cold PEG 8000 powder (Sigma, Germany) at 4° C. The S30 extracts can be stored in aliquots at −70° C.
Determination of the IC50 in the S. aureus In Vitro Transcription-Translation Assay
The inhibition of protein biosynthesis of the compounds can be shown in an in vitro transcription-translation assay. The assay is based on the cell-free transcription and translation of firefly luciferase using the reporter plasmid p1a as template and cell-free S30 extracts obtained from S. aureus. The activity of the resulting luciferase can be detected by luminescence measurement.
The amount of S30 extract or plasmid p1a to be employed must be tested anew for each preparation in order to ensure an optimal concentration in the assay. 3 μl of the substance to be tested, dissolved in 5% DMSO, are provided in an MTP. Then […] of a suitably concentrated plasmid solution p1a are added. […]

S. aureus 133 [4] = test: Systemic infection with S. aureus 133 (mouse sepsis model); format: in vivo, mouse (female CFW1); conditions: i.p. infection, i.v. therapy 30 minutes after infection, survival recorded for 6 days
Procedure: Systemic Infection with S. aureus 133
The suitability of the compounds of the invention for the treatment of bacterial infections can be shown in various animal models. For this purpose, the animals are generally infected with a suitable virulent microbe and then treated with the compound to be tested, which is present in a formulation which is adapted to the particular therapy model.
For this purpose, S. aureus 133 cells are cultured overnight in BH broth (Oxoid, Germany). The overnight culture was diluted 1:100 in fresh BH broth and expanded for 3 hours. The bacteria which are in the logarithmic phase of growth are centrifuged and washed twice with buffered physiological saline solution. A cell suspension in saline solution with an extinction of 50 units is then adjusted in a photometer (Dr Lange LP 2W). After a dilution step (1:15), this suspension is mixed 1:1 with a 10% mucine suspension. 0.2 ml of this infection solution is administered i.p. per 20 g of mouse. This corresponds to a cell count of about 1-2×10^6 microbes/mouse. The i.v. therapy takes place 30 minutes after the infection. Female CFW1 mice are used for the infection experiment. The survival of the animals is recorded for 6 days. The animal model is adjusted so that untreated animals die within 24 h after the infection.

[5] = Staphylococcus aureus, 133, read-out: MIC S. aureus 133
[6] = L4001, read-out: MIC E. faecium L4001
[7] = Staphylococcus aureus, 133; read-out: MIC S. aureus 133
[8] = E. faecium L4001, test medium with 10% FCS, read-out: MIC E. faecium L4001

| Compound | MIC (S. aureus 133 [1]; [5]) [µg/mL] | MIC (S. aureus T17) [µg/mL] | MIC [2, 6] [µg/mL] | IC50 [3] [nM] | ED100 (therapeutic effect) (S. aureus 133 [4]) [mg/kg] | MIC (S. aureus 133 [1]; [7]) [µg/mL] | MIC [2, 8] [µg/mL] |
| --- | --- | --- | --- | --- | --- | --- | --- |
| NCCC[C@@H]1NC(=O)[C@@H](N)Cc2cc(ccc2O)-c2ccc(O)c(c2)C[C@@H](C(=O)N2CCC[C@H]2C(=O)N[C@@H](CCCN)C(=O)NCCN)NC1=O [Example 1, 1-{[(8S,11S,14S)-14-Amino-11-(3-aminopropyl)-5,17-dihydroxy-10,13-dioxo-9,12-diazatricyclo[14.3.1.1^2,6]henicosa-1(20),2(21),3,5,16,18-hexaen-8-yl]carbonyl}-L-prolyl-N-(2-aminoethyl)-L-ornithinamide tetrahydrochloride] | 1 | 4 | 2 | 700 |  |  |  |
| NCCC[C@@H]1NC(=O)[C@@H](N)Cc2cc(ccc2O)-c2ccc(O)c(c2)C[C@@H](C(=O)N2CCC[C@H]2C(=O)N[C@@H](CCCN)C(=O)NCCN)NC1=O.O=C(O)C(F)(F)F.O=C(O)C(F)(F)F.O=C(O)C(F)(F)F.O=C(O)C(F)(F)F [Example 2, 1-{[(8S,11S,14S)-14-Amino-11-(3-aminopropyl)-5,17-dihydroxy-10,13-dioxo-9,12-diazatricyclo[14.3.1.1^2,6]henicosa-1(20),2(21),3,5,16,18-hexaen-8-yl]carbonyl}-L-prolyl-N-(2-aminoethyl)-L-ornithinamide tetra(hydrotrifluoroacetate)] |  |  |  |  | 1.25 |  |  |
| CNCCN(CCN)C(=O)[C@@H]1Cc2cc(ccc2O)-c2ccc(O)c(c2)C[C@H](N)C(=O)N[C@@H](CCCN)C(=O)N1 [Example 3, (8S,11S,14S)-14-Amino-N-(2-aminoethyl)-11-(3-aminopropyl)-5,17-dihydroxy-N-[2-(methylamino)ethyl]-10,13-dioxo-9,12-diazatricyclo[14.3.1.1^2,6]henicosa-1(20),2(21),3,5,16,18-hexaene-8-carboxamide tetrahydrochloride] | 2 | 4 | 8 | 800 |  |  |  |
| NCCC[C@@H]1NC(=O)[C@@H](N)Cc2cc(ccc2O)-c2ccc(O)c(c2)C[C@@H](C(=O)N(CCN)CCO)NC1=O [Example 6] |  | 4 (≈ 7.37 µM) |  | 700 |  | 2 (≈ 3.69 µM) | 4 (≈ 7.37 µM) |
| NCCC[C@@H]1NC(=O)[C@@H](N)Cc2cc(ccc2O)-c2ccc(O)c(c2)C[C@@H](C(=O)N(CCN)CC(O)CN)NC1=O (stereo partly drawn) [Example 8] |  | 4 (≈ 7 µM) |  | 250 |  | 1 (≈ 1.75 µM) | 16 (≈ 28 µM) |
| NCCC[C@@H]1NC(=O)[C@@H](N)Cc2cc(ccc2O)-c2ccc(O)c(c2)C[C@@H](C(=O)N(CCN)CC2CCCCN2)NC1=O (stereo partly drawn) [Example 9] |  | 2 (≈ 3.36 µM) |  | 330 |  | 4 (≈ 6.71 µM) | 32 (≈ 53.7 µM) |
